Test results taken from patent publication US20100240760A1 (priority 2005, published 2010).

What was measured:
[1] = test system: patients with mild-to-moderate essential hypertension; assay: Pharmacogenetic analysis of A2201 (Example I): response by ACE and AGTR2 genotype; assay type: in vivo, human; conditions: aliskiren treated groups pooled
[2] = test system: patients with mild-to-moderate essential hypertension; assay: Re-analysis of A2201 by genotype (Example II model, LSMEAN, race as covariate); assay type: in vivo, human; conditions: all aliskiren treated groups in A2201
Description: Samples. Patients participating in the clinical trial A2201 (see, EXAMPLE I) and clinical trial A2203 were asked to provide a separate consent for participation in pharmacogenetic analysis. Blood samples from all consenting patients were collected at the individual trial sites and then shipped to Covance (Indianapolis, Ind.). The genomic DNA of each patient was extracted from the blood by Covance using the […]™ DNA Isolation Kit (D-50K) (Gentra, Minneapolis, Minn.) and shipped to NIBR for genotyping. Ultimately, 511 patients from the clinical trial in EXAMPLE I (A2201) were genotyped, with roughly equal ratios of each treatment arm.
The primary efficacy variable was MSDBP change (reduction in MSDBP from baseline at end point). The secondary efficacy variables are MSSBP change (reduction in MSSBP from baseline at end point), responder ratio, plasma renin activity (PRA) reduction and active plasma renin (AREN) increase from baseline.
Genotyping. SNP assays were designed using information from the public dbSNP database and the proprietary Celera/ABI database. The resulting probe sets for the genotyping assay were generated for ABI's Assays-by-Design® platform. Livak K J et al., Nat. Genet. 9: 341-2 (1995). Genotyping was performed on 10 ng of genomic DNA according to the manufacturer's instructions.
Statistical analysis. Genotype-phenotype association studies and related analyses were performed in SAS (Cary, N.C.) using Analyst.
Association tests used categorical genotypes as the independent variable, with no assumption about dominance, and the various efficacy variables as dependent variables. Tests of continuous dependent variables used an ANCOVA analysis, and logistic regression was used for categorical dependent variables. Note that none of the results have been adjusted for multiple hypothesis testing. […] Covariates in the genotype-phenotype association analysis were: (1) dose level of treatment; (2) trial region coded as STU1A in A2201 (see EXAMPLE I) or REGION in A2203; (3) baseline measurement of MSDBP and MSSBP; and (4) race. Analysis was performed in all the samples from the three aliskiren treated arms first.

[3] = test system: patients with mild-to-moderate essential hypertension; assay: Clinical trial A2201 (Example I): aliskiren vs placebo and irbesartan, 8 weeks; assay type: in vivo, human; conditions: for MSDBP responders / MSSBP responders: ITT population at Endpoint, aliskiren 150-600 mg groups, irbesartan 150 mg; for MSDBP responders: responder: MSDBP <90 mm Hg or ≧10 mm Hg reduction from baseline; for MSSBP responders: responder: MSSBP <140 mm Hg or ≧20 mm Hg reduction from baseline; for mean increase in active renin: ITT population
Description: The clinical trial. A multicenter, randomized, double-blind, parallel group clinical trial was designed to explore the efficacy and safety of aliskiren compared to placebo in a population of mild-to-moderate hypertensive patients. The treatment was for eight weeks, i.e., the clinical trial endpoint was at eight weeks for this particular trial. […] The majority of patients were Caucasian and younger than 65 years of age, with a mean age in the mid 50s. The overall distribution of males and females was even. The primary efficacy variable analysed was MSDBP change (reduction in MSDBP from baseline). The secondary efficacy variables analysed were MSSBP change (reduction in MSSBP from baseline), responder ratio, plasma renin activity (PRA) reduction and active plasma renin (AREN) increase from baseline.

[4] = test system: sodium-depleted marmosets; conditions: p.o. or i.v.; cited from earlier work
[5] = humans; cited from earlier work
hypertensive patients = assay: Clinical trial A2203 (Example II): aliskiren, valsartan and combinations, 6 weeks; assay type: in vivo, human
[6] = test system: patients with mild-to-moderate essential hypertension; assay: Clinical trial A2201 (Example I): aliskiren vs placebo and irbesartan, 8 weeks; assay type: in vivo, human; conditions: 75, 150, or 300 mg once daily; mild-to-moderate hypertensive patients
[7] = SNP_4769 genotype CT (n 14), listed as Aliskiren
[8] = SNP_4769 genotype TT (n 278), listed as Aliskiren

Structure (SMILES): COCCCOc1cc(C[C@@H](C[C@H](N)[C@@H](O)C[C@H](C(=O)NCC(C)(C)C(N)=O)C(C)C)C(C)C)ccc1OC [aliskiren, Aliskiren]
- MSDBP reduction ([1]; SNP_1445 genotype AA (n 106)): −11.2 mmHg
- MSSBP reduction ([1]; SNP_1445 genotype AA (n 106)): −13.9 mm Hg
- MSDBP reduction ([1]; SNP_1445 genotype AG (n 69)): −13.2 mmHg
- MSSBP reduction ([1]; SNP_1445 genotype AG (n 69)): −15.7 mm Hg
- MSDBP reduction ([1]; SNP_1445 genotype GG (n 118)): −9.3 mmHg
- MSSBP reduction ([1]; SNP_1445 genotype GG (n 118)): −11.8 mm Hg
- MSDBP reduction ([1]; SNP_4769 genotype CT (n 14)): 4.7 mmHg
- MSSBP reduction ([1]; SNP_4769 genotype CT (n 14)): 6.2 mm Hg
- MSDBP reduction [1, 7]: −4.7 mmHg
- MSSBP reduction [1, 7]: −6.2 mm Hg
- MSDBP reduction ([1]; SNP_4769 genotype TT (n 278)): 11.1 mmHg
- MSSBP reduction ([1]; SNP_4769 genotype TT (n 278)): 13.7 mm Hg
- MSDBP reduction [1, 8]: −11.1 mmHg
- MSSBP reduction [1, 8]: −13.7 mm Hg
- MSDBP reduction ([1]; SNP_4795 genotype AA (n 115)): −9.0 mmHg
- MSSBP reduction ([1]; SNP_4795 genotype AA (n 115)): −11.5 mm Hg
- MSDBP reduction ([1]; SNP_4795 genotype GA (n 72)): −13.3 mmHg
- MSSBP reduction ([1]; SNP_4795 genotype GA (n 72)): −16.3 mm Hg
- MSDBP reduction ([1]; SNP_4795 genotype GG (n 106)): −11.1 mmHg
- MSSBP reduction ([1]; SNP_4795 genotype GG (n 106)): −13.6 mm Hg
- LSMEAN of MSDBP reduction ([2]; SNP_1445 genotype AA (n 106)): −11.0 mmHg
- LSMEAN of MSSBP reduction ([2]; SNP_1445 genotype AA (n 106)): −11.2 mmHg
- Responder rate ([2]; SNP_1445 genotype AA (n 106)): 75%
- LSMEAN of MSDBP reduction ([2]; SNP_1445 genotype AG (n 69)): −13.3 mmHg
- LSMEAN of MSSBP reduction ([2]; SNP_1445 genotype AG (n 69)): −13.8 mmHg
- Responder rate ([2]; SNP_1445 genotype AG (n 69)): 71%
- LSMEAN of MSDBP reduction ([2]; SNP_1445 genotype GG (n 118)): −9.4 mmHg
- LSMEAN of MSSBP reduction ([2]; SNP_1445 genotype GG (n 118)): −9.8 mmHg
- Responder rate ([2]; SNP_1445 genotype GG (n 118)): 58%
- Responder rate ([2]; SNP_4769 genotype CT (n 14)): 14%
- LSMEAN of MSDBP reduction ([2]; SNP_4795 genotype AA (n 115)): −9.2 mmHg
- LSMEAN of MSSBP reduction ([2]; SNP_4795 genotype AA (n 115)): −9.5 mmHg
- Responder rate ([2]; SNP_4795 genotype AA (n 115)): 57%
- LSMEAN of MSDBP reduction ([2]; SNP_4795 genotype GA (n 72)): −13.4 mmHg
- LSMEAN of MSSBP reduction ([2]; SNP_4795 genotype GA (n 72)): −14.2 mmHg
- Responder rate ([2]; SNP_4795 genotype GA (n 72)): 74%
- LSMEAN of MSDBP reduction ([2]; SNP_4795 genotype GG (n 106)): −10.8 mmHg
- LSMEAN of MSSBP reduction ([2]; SNP_4795 genotype GG (n 106)): −10.8 mmHg
- Responder rate ([2]; SNP_4795 genotype GG (n 106)): 75%
- MSDBP responders [3]: 59-67%
- MSSBP responders [3]: 57-68%
- mean increase in active renin ([3]; 150 mg): 20.8 mu/mL
- mean increase in active renin ([3]; 300 mg): 29.9 mu/mL
- mean increase in active renin ([3]; 600 mg): 93.6 mu/mL
- MSDBP reduction, comparison across treatment groups ([3]; aliskiren 300 and 600 mg): greatest reductions
- MSSBP reduction, comparison across treatment groups ([3]; aliskiren 300 and 600 mg): greatest reductions
- MSSBP reduction, comparison with placebo and irbesartan ([3]; aliskiren 300 and 600 mg, at Endpoint): statistically superior to placebo and irbesartan
- inhibition of plasma renin activity (PRA) [4]: complete inhibition
- mean arterial pressure (MAP) [4]: sustained reductions
- plasma concentrations of active and total renin [4]: significant increases
- Cmax and AUC dependence on dose [5]: increase with dose, but in a non-linear fashion
- bioavailability [5]: approximately 2.7%
- half-life [5]: approximately 25 hours
- time to peak plasma levels after administration [5]: 3 to 5 h
- change from baseline in MSDBP, aliskiren monotherapy vs. placebo (hypertensive patients; aliskiren 300 mg group, 6 weeks): statistically significant
- dose-response and magnitude of placebo-subtracted effects (hypertensive patients; preliminary clinical study results summary, placebo response 8.6 mmHg): lower than expected
- daytime ambulatory systolic blood pressure (DASBP) [6]: statistically significant reduction

Structure (SMILES): CCCCC1=NC2(CCCC2)C(=O)N1Cc1ccc(-c2ccccc2-c2nnn[nH]2)cc1 [irbesartan]
- MSDBP responders [3]: 56%
- MSSBP responders [3]: 59%
- mean increase in active renin ([3]; 150 mg): 11.2 mu/mL
